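Dose response: 5 concentrations. Exposure: 48 h. Format: 96-well plates. Endpoint: linear interpolation; highest concentration if not reached. TGI denotes the concentration required for complete inhibition of growth.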
What was measured:
Assay in all cases: DTP human tumour cell line panel, 48 h
786-0 renal = test system: 786-0 renal
A549 NSCLC = test system: A549 NSCLC
ACHN renal = test system: ACHN renal
CCRF-CEM leukemia = test system: CCRF-CEM leukemia
COLO 205 colon = test system: COLO 205 colon
DMS 114 small cell lung = test system: DMS 114 small cell lung
DMS 273 small cell lung = test system: DMS 273 small cell lung
EKVX NSCLC = test system: EKVX NSCLC
HCT-116 colon = test system: HCT-116 colon
HL-60(TB) leukemia = test system: HL-60(TB) leukemia
HOP-18 NSCLC = test system: HOP-18 NSCLC
HOP-92 NSCLC = test system: HOP-92 NSCLC
HT29 colon = test system: HT29 colon
K-562 leukemia = test system: K-562 leukemia
LXFL 529 NSCLC = test system: LXFL 529 NSCLC
M14 melanoma = test system: M14 melanoma
MALME-3M melanoma = test system: MALME-3M melanoma
MOLT-4 leukemia = test system: MOLT-4 leukemia
NCI-H226 lung = test system: NCI-H226 lung
NCI-H23 lung = test system: NCI-H23 lung
OVCAR-3 ovarian = test system: OVCAR-3 ovarian
OVCAR-4 ovarian = test system: OVCAR-4 ovarian
OVCAR-8 ovarian = test system: OVCAR-8 ovarian
RPMI-8226 leukemia = test system: RPMI-8226 leukemia
SF-268 CNS = test system: SF-268 CNS
SF-295 CNS = test system: SF-295 CNS
SK-MEL-28 melanoma = test system: SK-MEL-28 melanoma
SK-OV-3 ovarian = test system: SK-OV-3 ovarian
SN12C renal = test system: SN12C renal
SNB-19 CNS = test system: SNB-19 CNS
SNB-75 CNS = test system: SNB-75 CNS
SNB-78 CNS = test system: SNB-78 CNS
U251 CNS = test system: U251 CNS
UACC-257 melanoma = test system: UACC-257 melanoma
UO-31 renal = test system: UO-31 renal
XF 498 CNS = test system: XF 498 CNS
DLD-1 colon = test system: DLD-1 colon
HCC-2998 colon = test system: HCC-2998 colon
HCT-15 colon = test system: HCT-15 colon
IGROV1 ovarian = test system: IGROV1 ovarian
KM12 colon = test system: KM12 colon
KM20L2 colon = test system: KM20L2 colon
LOX IMVI melanoma = test system: LOX IMVI melanoma
M19-MEL melanoma = test system: M19-MEL melanoma
NCI-H460 lung = test system: NCI-H460 lung
NCI-H522 lung = test system: NCI-H522 lung
OVCAR-5 ovarian = test system: OVCAR-5 ovarian
RXF 393 renal = test system: RXF 393 renal
SF-539 CNS = test system: SF-539 CNS
SK-MEL-2 melanoma = test system: SK-MEL-2 melanoma
SK-MEL-5 melanoma = test system: SK-MEL-5 melanoma
SW-620 colon = test system: SW-620 colon
TK-10 renal = test system: TK-10 renal
UACC-62 melanoma = test system: UACC-62 melanoma
A498 renal = test system: A498 renal
CAKI-1 renal = test system: CAKI-1 renal
HOP-62 NSCLC = test system: HOP-62 NSCLC
SR leukemia = test system: SR leukemia

SMILES: c1ccc(-c2nc3ccccc3nc2SCc2cccnc2)cc1
- TGI (786-0 renal): > 100 µM
- TGI (A549 NSCLC): > 100 µM
- TGI (ACHN renal): > 100 µM
- TGI (CCRF-CEM leukemia): > 100 µM
- TGI (COLO 205 colon): > 100 µM
- TGI (DMS 114 small cell lung): > 100 µM
- TGI (DMS 273 small cell lung): > 100 µM
- TGI (EKVX NSCLC): > 100 µM
- TGI (HCT-116 colon): > 100 µM
- TGI (HL-60(TB) leukemia): > 100 µM
- TGI (HOP-18 NSCLC): > 100 µM
- TGI (HOP-92 NSCLC): > 100 µM
- TGI (HT29 colon): > 100 µM
- TGI (K-562 leukemia): > 100 µM
- TGI (LXFL 529 NSCLC): > 100 µM
- TGI (M14 melanoma): > 100 µM
- TGI (MALME-3M melanoma): > 100 µM
- TGI (MOLT-4 leukemia): > 100 µM
- TGI (NCI-H226 lung): > 100 µM
- TGI (NCI-H23 lung): > 100 µM
- TGI (OVCAR-3 ovarian): > 100 µM
- TGI (OVCAR-4 ovarian): > 100 µM
- TGI (OVCAR-8 ovarian): > 100 µM
- TGI (RPMI-8226 leukemia): > 100 µM
- TGI (SF-268 CNS): > 100 µM
- TGI (SF-295 CNS): > 100 µM
- TGI (SK-MEL-28 melanoma): > 100 µM
- TGI (SK-OV-3 ovarian): > 100 µM
- TGI (SN12C renal): > 100 µM
- TGI (SNB-19 CNS): > 100 µM
- TGI (SNB-75 CNS): > 100 µM
- TGI (SNB-78 CNS): > 100 µM
- TGI (U251 CNS): > 100 µM
- TGI (UACC-257 melanoma): > 100 µM
- TGI (UO-31 renal): > 100 µM
- TGI (XF 498 CNS): > 100 µM

SMILES: COc1c(C)cc2c(C(C)C)c(O)c(O)c(C=O)c2c1O
- TGI (786-0 renal): > 100 µM
- TGI (A549 NSCLC): > 100 µM
- TGI (ACHN renal): 93 µM
- TGI (CCRF-CEM leukemia): > 100 µM
- TGI (COLO 205 colon): 36.3 µM
- TGI (DLD-1 colon): > 100 µM
- TGI (DMS 114 small cell lung): 37.9 µM
- TGI (DMS 273 small cell lung): 59.1 µM
- TGI (EKVX NSCLC): 95.1 µM
- TGI (HCC-2998 colon): > 100 µM
- TGI (HCT-116 colon): 52 µM
- TGI (HCT-15 colon): > 100 µM
- TGI (HL-60(TB) leukemia): 58.3 µM
- TGI (HOP-18 NSCLC): 71.7 µM
- TGI (HOP-92 NSCLC): > 100 µM
- TGI (HT29 colon): 47.1 µM
- TGI (IGROV1 ovarian): > 100 µM
- TGI (K-562 leukemia): 45.4 µM
- TGI (KM12 colon): 56.1 µM
- TGI (KM20L2 colon): 88.1 µM
- TGI (LOX IMVI melanoma): 68.9 µM
- TGI (LXFL 529 NSCLC): > 100 µM
- TGI (M14 melanoma): 64.4 µM
- TGI (M19-MEL melanoma): 81.8 µM
- TGI (MALME-3M melanoma): 38.7 µM
- TGI (MOLT-4 leukemia): > 100 µM
- TGI (NCI-H226 lung): 57.2 µM
- TGI (NCI-H23 lung): 47.8 µM
- TGI (NCI-H460 lung): > 100 µM
- TGI (NCI-H522 lung): 60.4 µM
- TGI (OVCAR-3 ovarian): 49.5 µM
- TGI (OVCAR-4 ovarian): 63.9 µM
- TGI (OVCAR-5 ovarian): 86 µM
- TGI (OVCAR-8 ovarian): 83.8 µM
- TGI (RPMI-8226 leukemia): > 100 µM
- TGI (RXF 393 renal): 55.2 µM
- TGI (SF-268 CNS): > 100 µM
- TGI (SF-295 CNS): 86 µM
- TGI (SF-539 CNS): 37.6 µM
- TGI (SK-MEL-2 melanoma): 37.1 µM
- TGI (SK-MEL-28 melanoma): 75.1 µM
- TGI (SK-MEL-5 melanoma): 33.1 µM
- TGI (SK-OV-3 ovarian): > 100 µM
- TGI (SN12C renal): 75.8 µM
- TGI (SNB-19 CNS): > 100 µM
- TGI (SNB-75 CNS): 90.2 µM
- TGI (SNB-78 CNS): > 100 µM
- TGI (SW-620 colon): > 100 µM
- TGI (TK-10 renal): > 100 µM
- TGI (U251 CNS): 57.9 µM
- TGI (UACC-257 melanoma): 59.4 µM
- TGI (UACC-62 melanoma): 47.5 µM
- TGI (UO-31 renal): > 100 µM
- TGI (XF 498 CNS): > 100 µM

SMILES: O=C(O)/C(Cl)=C(\Cl)C(=O)c1ccccc1
- TGI (786-0 renal): > 100 µM
- TGI (A498 renal): > 100 µM
- TGI (A549 NSCLC): > 100 µM
- TGI (ACHN renal): > 100 µM
- TGI (CAKI-1 renal): > 100 µM
- TGI (CCRF-CEM leukemia): > 100 µM
- TGI (COLO 205 colon): > 100 µM
- TGI (DLD-1 colon): > 100 µM
- TGI (DMS 114 small cell lung): > 100 µM
- TGI (DMS 273 small cell lung): > 100 µM
- TGI (EKVX NSCLC): > 100 µM
- TGI (HCC-2998 colon): > 100 µM
- TGI (HCT-116 colon): > 100 µM
- TGI (HCT-15 colon): > 100 µM
- TGI (HL-60(TB) leukemia): > 100 µM
- TGI (HOP-62 NSCLC): > 100 µM
- TGI (HOP-92 NSCLC): > 100 µM
- TGI (HT29 colon): > 100 µM
- TGI (IGROV1 ovarian): > 100 µM
- TGI (K-562 leukemia): > 100 µM
- TGI (KM12 colon): > 100 µM
- TGI (KM20L2 colon): > 100 µM
- TGI (LOX IMVI melanoma): > 100 µM
- TGI (LXFL 529 NSCLC): > 100 µM
- TGI (M14 melanoma): > 100 µM
- TGI (M19-MEL melanoma): > 100 µM
- TGI (MALME-3M melanoma): > 100 µM
- TGI (MOLT-4 leukemia): > 100 µM
- TGI (NCI-H226 lung): > 100 µM
- TGI (NCI-H23 lung): > 100 µM
- TGI (NCI-H460 lung): > 100 µM
- TGI (NCI-H522 lung): > 100 µM
- TGI (OVCAR-3 ovarian): > 100 µM
- TGI (OVCAR-4 ovarian): > 100 µM
- TGI (OVCAR-5 ovarian): > 100 µM
- TGI (OVCAR-8 ovarian): > 100 µM
- TGI (RXF 393 renal): > 100 µM
- TGI (SF-268 CNS): > 100 µM
- TGI (SF-295 CNS): > 100 µM
- TGI (SF-539 CNS): > 100 µM
- TGI (SK-MEL-2 melanoma): > 100 µM
- TGI (SK-MEL-28 melanoma): > 100 µM
- TGI (SK-MEL-5 melanoma): > 100 µM
- TGI (SK-OV-3 ovarian): > 100 µM
- TGI (SN12C renal): > 100 µM
- TGI (SNB-19 CNS): > 100 µM
- TGI (SNB-75 CNS): > 100 µM
- TGI (SNB-78 CNS): > 100 µM
- TGI (SR leukemia): > 100 µM
- TGI (SW-620 colon): > 100 µM
- TGI (TK-10 renal): > 100 µM
- TGI (U251 CNS): > 100 µM
- TGI (UACC-257 melanoma): > 100 µM
- TGI (UACC-62 melanoma): > 100 µM
- TGI (UO-31 renal): > 100 µM
- TGI (XF 498 CNS): > 100 µM

SMILES: CCCCCOCC(O)CO (centres undefined)
- TGI (786-0 renal): > 100 µM
- TGI (A498 renal): > 100 µM
- TGI (A549 NSCLC): > 100 µM
- TGI (ACHN renal): > 100 µM
- TGI (CAKI-1 renal): > 100 µM
- TGI (COLO 205 colon): > 100 µM
- TGI (DLD-1 colon): > 100 µM
- TGI (DMS 114 small cell lung): > 100 µM
- TGI (DMS 273 small cell lung): > 100 µM
- TGI (EKVX NSCLC): > 100 µM
- TGI (HCT-116 colon): > 100 µM
- TGI (HCT-15 colon): > 100 µM
- TGI (HOP-18 NSCLC): > 100 µM
- TGI (HOP-62 NSCLC): > 100 µM
- TGI (HOP-92 NSCLC): > 100 µM
- TGI (IGROV1 ovarian): > 100 µM
- TGI (KM12 colon): > 100 µM
- TGI (KM20L2 colon): > 100 µM
- TGI (LOX IMVI melanoma): > 100 µM
- TGI (MALME-3M melanoma): > 100 µM
- TGI (NCI-H226 lung): > 100 µM
- TGI (NCI-H23 lung): > 100 µM
- TGI (NCI-H460 lung): > 100 µM
- TGI (OVCAR-3 ovarian): > 100 µM
- TGI (OVCAR-4 ovarian): > 100 µM
- TGI (OVCAR-5 ovarian): > 100 µM
- TGI (OVCAR-8 ovarian): > 100 µM
- TGI (RXF 393 renal): > 100 µM
- TGI (SF-268 CNS): > 100 µM
- TGI (SF-295 CNS): > 100 µM
- TGI (SF-539 CNS): > 100 µM
- TGI (SK-MEL-2 melanoma): > 100 µM
- TGI (SK-MEL-28 melanoma): > 100 µM
- TGI (SK-MEL-5 melanoma): > 100 µM
- TGI (SN12C renal): > 100 µM
- TGI (SNB-19 CNS): > 100 µM
- TGI (SNB-78 CNS): > 100 µM
- TGI (SW-620 colon): > 100 µM
- TGI (TK-10 renal): > 100 µM
- TGI (U251 CNS): > 100 µM
- TGI (UACC-257 melanoma): > 100 µM
- TGI (UACC-62 melanoma): > 100 µM
- TGI (XF 498 CNS): > 100 µM

From PubChem BioAssay (NCI)
